# Source: patent publication US20090124539A1, “Methods of treating infection” (priority 2007, published 2009)
# Where two headings read alike, the source gives them in different places.
# Key:
# Streptococcus pneumoniae = test: MIC, broth microdilution (CLSI); assay type: cell-based; conditions: Streptococcus pneumoniae, read-out: MIC
# Experimental: (§1) The solvent for all of the compounds was deionized water (DIW), and all of the compounds dissolved in the solvent. The stock solutions were allowed to stand in DIW for one hour at room temperature prior to testing to allow time for auto-sterilization.
# (§2) The test organisms were originally received from clinical sources, or from the American Type Culture Collection. When received, the organisms were sub-cultured onto an appropriate agar medium. Following incubation, colonies were harvested from these plates and cell suspensions prepared and frozen at −80° C. On the day prior to assay, a frozen vial of each culture was thawed and the contents were streaked for isolation onto either Tryptic Soy Agar (Becton Dickinson, Sparks, Md.) or Tryptic Soy Agar (Enhanced Hemolysis; Becton Dickinson) supplemented with 5% sheep blood for streptococci. The agar plates were incubated overnight at 35° C. Staphylococcus aureus ATCC 29213 and Enterococcus faecalis ATCC 29212 were included as quality control isolates in the assay.
# (§3) The test medium for the broth microdilution testing was Mueller Hinton II broth (MHB II; BBL# 212322, Lot # 6024003, Becton Dickinson). The broth was prepared at 1.05× normal weight/volume to offset the 5% volume of the drug solution in the final test plates.
# For streptococci, lysed horse blood (Lot # H88621; Cleveland Scientific, Bath, Ohio) was added to the MHB II at a final concentration of 2%. […]
# (§4) MIC values were determined using a broth microdilution method as recommended by the Clinical and Laboratory Standards Institute (Clinical and Laboratory Standards Institute^a. Methods for Dilution Antimicrobial Susceptibility Tests for Bacteria That Grow Aerobically; Approved Standard-Seventh Edition. Clinical and Laboratory Standards Institute document M7-A7 [ISBN 1-56238-587-9]. Clinical and Laboratory Standards Institute, 940 West Valley Road, Suite 1400, Wayne, Pa. 19087-1898 USA, 2006). Automated liquid handlers (Multidrop 384, Labsystems, Helsinki, Finland; Biomek 2000 and Multimek 96, Beckman Coulter, Fullerton Calif.) were used to conduct serial dilutions and make liquid transfers.
# (§5) Wells of two standard 96-well microdilution plates (Falcon 3918; Becton Dickinson) were filled with 150 μL of […] using the Multidrop 384. These plates were used to prepare the drug “mother plates” that provided the serial drug dilutions for replicate “daughter plates”. The Biomek 2000 was used to transfer 150 μl of each stock solution from the wells of column 1 of a deep well plate to the corresponding wells in column 1 of the mother plate and to make eleven 2-fold serial dilutions in the mother plates. The wells of column 12 contained no drug and were the organism growth control wells. Each mother plate has the capacity to create a total of 12 daughter plates.
# (§6) The daughter plates were loaded with 180 μL of one of the media described above using the Multidrop 384. The wells of the daughter plates ultimately contained 180 μL of MHB II, 10 μL of drug solution, and 10 μL of bacterial inoculum prepared in broth appropriate to the test organism (1.05×). The daughter plates were prepared on the Multimek 96 instrument, which transferred 10 μL of drug solution from each well of the mother plate to each corresponding well of each daughter plate in a single step.
# Standardized inoculum of each organism was prepared following Clinical and Laboratory Standards Institute (Clinical and Laboratory Standards Institute^b. Performance Standards for Antimicrobial Susceptibility Testing; Sixteenth Informational Supplement. CLSI document M100-S16 [ISBN 1-56238-588-7]. Clinical and Laboratory Standards Institute, 940 West Valley Road, Suite 1400, Wayne, Pa. 19087-1898 USA, 2006) methods. The inoculum for each organism was dispensed into sterile reservoirs divided by length (Beckman Coulter), and the Biomek 2000 was used to inoculate the plates. […]
# Enterococcus faecium = test: MIC, broth microdilution (CLSI); assay type: cell-based; conditions: Enterococcus faecium, read-out: MIC
# Experimental: (§7) The stock solutions were allowed to stand in DIW for one hour at room temperature prior to testing to allow time for auto-sterilization.
# as §2, §3
# (§8) CLSI guidelines recommend that Mueller-Hinton II broth be adjusted to contain 50 mg/L of Ca^++ ions for proper daptomycin MIC results. Since Mueller-Hinton II broth has already been adjusted by the manufacturer to contain approximately 25 mg/L of Ca^++ ions, an additional 25 mg/L of Ca^++ ions was adjusted with 10 mg/mL of CaCl2.2H2O (Lot# 084K0215; Sigma-Aldrich) added at a rate of 0.1 mL/L of broth, for each desired increment of 1 mg/L. This supplemented Mueller-Hinton II broth was used only in wells containing daptomycin.
# as §4, §5, §6
# Staphylococcus aureus [1] = test: MIC, broth microdilution (CLSI); assay type: cell-based; conditions: Staphylococcus aureus, read-out: MIC
# Experimental: as §7, §2, §3, §8, §4, §5, §6
# Enterococcus faecalis [2] = conditions: quality control range for Enterococcus faecalis ATCC 29212 (# 101); cited from earlier work
# Enterococcus faecalis [3] = test: MIC, broth microdilution (CLSI); assay type: cell-based; conditions: Enterococcus faecalis, read-out: MIC
# Experimental: as §1, §2, §3, §8, §4, §5
# (§9) The daughter plates were loaded with 180 μL of one of the media described above using the Multidrop 384. The wells of the daughter plates ultimately contained 180 μL of MHB II, 10 μL of drug solution, and 10 μL of bacterial inoculum prepared in broth appropriate to the test organism (1.05×). The daughter plates were prepared on the Multimek 96 instrument, which transferred 10 μL of drug solution from each well of the mother plate to each corresponding well of each daughter plate in a single step. […]
# [4] = system: Staphylococcus epidermidis; test: MIC, broth microdilution (CLSI); assay type: cell-based; conditions: read-out: MIC
# Experimental: as §1, §2, §3, §8, §4, §5, §9
# Staphylococcus aureus [5] = conditions: quality control range for Staphylococcus aureus ATCC 29213 (# 100); cited from earlier work
# Streptococcus pyogenes = test: MIC, broth microdilution (CLSI); assay type: cell-based
# Experimental: as §1, §2, §3
# For streptococci, lysed horse blood (Lot # H88621; Cleveland Scientific, Bath, Ohio) was added to the MHB II at a final concentration of 2%.
# as §8, §4, §5, §9
smiles,measurement,setting,value
CCCCCCCCCC(=O)N[C@@H](Cc1c[nH]c2ccccc12)C(=O)N[C@H](CC(N)=O)C(=O)N[C@@H](CC(=O)O)C(=O)N[C@@H]1C(=O)NCC(=O)N[C@@H](CCCN)C(=O)N[C@@H](CC(=O)O)C(=O)N[C@H](C)C(=O)N[C@@H](CC(=O)O)C(=O)NCC(=O)N[C@H](CO)C(=O)N[C@@H]([C@H](C)CC(=O)O)C(=O)N[C@@H](CC(=O)c2ccccc2N)C(=O)O[C@@H]1C [Daptomycin],MIC,"Streptococcus pneumoniae; Streptococcus pneumoniae Micromyx # 374, Wild type",≤ 0.12 µg/mL
same,MIC,"Streptococcus pneumoniae; Streptococcus pneumoniae Micromyx # 379, parC, gyrA, gyrB",0.25 µg/mL
same,MIC,"Streptococcus pneumoniae; Streptococcus pneumoniae Micromyx # 927, mef(A)",≤ 0.12 µg/mL
same,MIC,"Streptococcus pneumoniae; Streptococcus pneumoniae Micromyx # 928, erm(B)",≤ 0.12 µg/mL
same,MIC,"Enterococcus faecium; Enterococcus faecium Micromyx # 750, Van^S",≤ 0.12 µg/mL
same,MIC,"Enterococcus faecium; Enterococcus faecium Micromyx # 752, Van A",2 µg/mL
same,MIC,"Enterococcus faecium; Enterococcus faecium Micromyx # 1120, Van B",2 µg/mL
same,MIC,"Enterococcus faecium; Enterococcus faecium Micromyx # 1721, DAP^R",8 µg/mL
same,MIC,"Staphylococcus aureus [1]; ATCC 29213 / MSSA, Staphylococcus aureus Micromyx # 100, MSSA, CLSI QC strain (ATCC 29213)",0.5 µg/mL
same,MIC,"Staphylococcus aureus [1]; MRSA, Staphylococcus aureus Micromyx # 1004, MRSA, FA^R",0.25 µg/mL
same,MIC,"Staphylococcus aureus [1]; MRSA, Staphylococcus aureus Micromyx # 1730, Community-acquired MRSA",0.5 µg/mL
same,MIC,"Staphylococcus aureus [1]; MSSA, Staphylococcus aureus Micromyx # 1002, MSSA, macrolide^R",0.5 µg/mL
same,MIC,"Staphylococcus aureus [1]; Staphylococcus aureus Micromyx # 106, RA^R",0.5 µg/mL
same,MIC,"Staphylococcus aureus [1]; Staphylococcus aureus Micromyx # 1016, FA^R",0.25 µg/mL
same,MIC,"Staphylococcus aureus [1]; Staphylococcus aureus Micromyx # 1651, LZD^R clinical isolate",0.5 µg/mL
same,MIC,"Staphylococcus aureus [1]; Staphylococcus aureus Micromyx # 1727, GM^R",0.25 µg/mL
same,MIC,"Staphylococcus aureus [1]; Staphylococcus aureus Micromyx # 1731, CHL^R",0.25 µg/mL
same,MIC,"Staphylococcus aureus [1]; VISA, Staphylococcus aureus Micromyx # 1723, VISA",1 µg/mL
same,"MIC, CLSI Recommended Range",Enterococcus faecalis [2],1 to 4 µg/mL
same,MIC,"Enterococcus faecalis [3]; ATCC29212, Enterococcus faecalis Micromyx # 101, VSE, CLSI QC strain (ATCC 29212)",1 µg/mL
same,MIC,"Enterococcus faecalis [3]; Enterococcus faecalis Micromyx # 413, LZD^R from res. dev. or other",0.5 µg/mL
same,MIC,"Enterococcus faecalis [3]; Enterococcus faecalis Micromyx # 486, Van A",0.5 µg/mL
same,MIC,"Enterococcus faecalis [3]; Enterococcus faecalis Micromyx # 1088, Van B",1 µg/mL
same,MIC,"[4]; Staphylococcus epidermidis Micromyx # 108, MRSE",0.5 µg/mL
same,MIC,"[4]; Staphylococcus epidermidis Micromyx # 835, MSSE",0.5 µg/mL
same,"MIC, CLSI Recommended Range",Staphylococcus aureus [5],0.25 to 1 µg/mL
same,MIC,"Streptococcus pyogenes; Streptococcus pyogenes Micromyx # 942, macrolide^R",≦0.12 μg/mL
same,MIC,"Streptococcus pyogenes; Streptococcus pyogenes Micromyx # 985, Susceptible, read-out: MIC",≤ 0.12 µg/mL
